Assay results as given in patent US8013006B2.
Where two headings read alike, the source gives them in different places.

System: HCV replicon
Experiment: microbe, parasite or virus in culture
Format: cell-based
[1] = Replicon IC50 values are determined by firefly luciferase signal, bicistronic replicon, 2 days, read-out: Replicon IC5Os
[2] = Hepatitis C virus, 48 h, read-out: Replicon IC5Os

| SMILES | IC50 [1] [µM] | further results |
| --- | --- | --- |
| CCn1c(-c2ccc(OCCN3CCN(C)CC3)cc2)c(C#N)c2ccc(OC)cc21 [Compound 263] | 0.5 to 2 |  |
| CCn1c(-c2ccc(OCCN3CC[C@H](O)C3)cc2)c(C#N)c2ccc(OC)cc21 [Compound 264] |  | IC50 (Hepatitis C virus, 48 h, read-out: Replicon IC5Os μM): 0.5 to 2 µM |
| CCOc1ccc2c(C#N)c(-c3ccc(C(=O)N4CCOCC4)cc3)n(CC)c2c1 [Compound 270] | > 2 |  |
| CCn1c(-c2ccc(C(=O)N3CCOCC3)cc2)c(C#N)c2ccc(OC(C)C)cc21 [Compound 271] | 0.5 to 2 |  |
| CCn1c(-c2ccc(NS(=O)(=O)C3CC3)cc2)c(C#N)c2ccc(OC)cc21 [Compound 272] | 0.5 to 2 |  |
| CCn1c(-c2ccc(NS(=O)(=O)CCl)cc2)c(C#N)c2ccc(OC)cc21 [Compound 273] | > 2 |  |
| CCn1c(-c2ccc(S(=O)(=O)N(C)C)cc2)c(C#N)c2ccc(OC)cc21 [Compound 275] | > 2 |  |
| CCn1c(-c2ccc(S(=O)(=O)N3CCOCC3)cc2)c(C#N)c2ccc(OC)cc21 [Compound 276] | > 2 |  |
| CCn1c(-c2ccc(S(=O)(=O)NC)cc2)c(C#N)c2ccc(OC)cc21 [Compound 277] | > 2 |  |
| CCn1c(-c2ccc(S(N)(=O)=O)cc2)c(C#N)c2ccc(OC)cc21 [Compound 278] | > 2 |  |
| CCn1c(-c2cc3ccccc3o2)c(C#N)c2ccc(OC)cc21 [Compound 282] | > 2 |  |
| CCn1c(-c2ccc(-c3ccccc3)cc2)c(C#N)c2ccc(OC)cc21 [Compound 283] | > 2 |  |
| CCn1c(-c2cc3ccccc3s2)c(C#N)c2ccc(OC)cc21 [Compound 286] | 0.5 to 2 |  |
| CCn1c(-c2cccc(NS(=O)(=O)CC)c2)c(C#N)c2ccc(OC)cc21 [Compound 287] | > 2 |  |
| CCn1c(-c2cccc(NS(=O)(=O)CCCCl)c2)c(C#N)c2ccc(OC)cc21 [Compound 289] | > 2 |  |
| CCn1c(-c2cccc(C(=O)NCCN3CCOCC3)c2)c(C#N)c2ccc(OC)cc21 [Compound 290] | > 2 |  |
| CCn1c(-c2cccc(C(N)=O)c2)c(C#N)c2ccc(OC)cc21 [Compound 291] | > 2 |  |
| CCNC(=O)c1cccc(-c2c(C#N)c3ccc(OC)cc3n2CC)c1 [Compound 292] | > 2 |  |
| CCn1c(-c2cccc(NC(=O)Oc3ccccc3)c2)c(C#N)c2ccc(OC)cc21 [Compound 293] | > 2 |  |
| CCOC(=O)Nc1cccc(-c2c(C#N)c3ccc(OC)cc3n2CC)c1 [Compound 294] |  | IC50 [2]: < 0.5 µM |
| CCn1c(-c2cccc(NC(=O)OCC(C)C)c2)c(C#N)c2ccc(OC)cc21 [Compound 296] |  | IC50 [2]: 0.5 to 2 µM |

| SMILES | IC50 [1] [µM] | further results |
| --- | --- | --- |
| CCCOC(=O)Nc1cccc(-c2c(C#N)c3ccc(OC)cc3n2CC)c1 [Compound 297] |  | IC50 [2]: 0.5 to 2 µM |
| CCn1c(-c2cccc(NC(=O)OCCOC)c2)c(C#N)c2ccc(OC)cc21 [Compound 298] |  | IC50 [2]: 0.5 to 2 µM |
| C=CCOC(=O)Nc1cccc(-c2c(C#N)c3ccc(OC)cc3n2CC)c1 [Compound 299] |  | IC50 [2]: 0.5 to 2 µM |
| CCCCOC(=O)Nc1cccc(-c2c(C#N)c3ccc(OC)cc3n2CC)c1 [Compound 300] | 0.5 to 2 |  |
| CCn1c(-c2cccc(NC(=O)OCCCCl)c2)c(C#N)c2ccc(OC)cc21 [Compound 301] |  | IC50 [2]: 0.5 to 2 µM |
| CCn1c(-c2cccc(NC(=O)OCCF)c2)c(C#N)c2ccc(OC)cc21 [Compound 302] |  | IC50 [2]: 0.5 to 2 µM |
| CCn1c(-c2cccc(NC(=O)OCc3ccccc3)c2)c(C#N)c2ccc(OC)cc21 [Compound 304] |  | IC50 [2]: 0.5 to 2 µM |
| CCn1c(-c2cccc(NC(=O)Oc3ccc(OC)cc3)c2)c(C#N)c2ccc(OC)cc21 [Compound 305] | > 2 |  |
| CCn1c(-c2cccc(NC(=O)Oc3ccc(Cl)cc3)c2)c(C#N)c2ccc(OC)cc21 [Compound 306] |  | IC50 [2]: 0.5 to 2 µM |
| CCn1c(-c2cccc(NC(=O)Oc3ccc(F)cc3)c2)c(C#N)c2ccc(OC)cc21 [Compound 307] | 0.5 to 2 |  |
| CCn1c(-c2cccc(NC(=O)Oc3ccc(Br)cc3)c2)c(C#N)c2ccc(OC)cc21 [Compound 309] |  | IC50 [2]: 0.5 to 2 µM |
| CCn1c(-c2cccc(NC(=O)OC(C)C)c2)c(C#N)c2ccc(OC)cc21 [Compound 310] |  | IC50 [2]: 0.5 to 2 µM |
| CCn1c(-c2ccc(NC(=O)OCC(C)C)cc2)c(C#N)c2ccc(OC)cc21 [Compound 311] | > 2 |  |
| CCCOC(=O)Nc1ccc(-c2c(C#N)c3ccc(OC)cc3n2CC)cc1 [Compound 312] | > 2 |  |
| CCn1c(-c2ccc(NC(=O)OCCOC)cc2)c(C#N)c2ccc(OC)cc21 [Compound 313] | > 2 |  |
| C=CCOC(=O)Nc1ccc(-c2c(C#N)c3ccc(OC)cc3n2CC)cc1 [Compound 314] | > 2 |  |
| CCn1c(-c2ccc(NC(=O)OCCCCl)cc2)c(C#N)c2ccc(OC)cc21 [Compound 315] | > 2 |  |
| CCn1c(-c2ccc(NC(=O)OC3C[C@H](C)CC[C@H]3C(C)C)cc2)c(C#N)c2ccc(OC)cc21 (stereo partly shown) [Compound 316] | > 2 |  |
| CCn1c(-c2ccc(NC(=O)OCCF)cc2)c(C#N)c2ccc(OC)cc21 [Compound 317] | > 2 |  |
| CCn1c(-c2ccc(NC(=O)Oc3ccc(Cl)cc3)cc2)c(C#N)c2ccc(OC)cc21 [Compound 318] | > 2 |  |
| CCn1c(-c2ccc(NC(=O)Oc3ccc(F)cc3)cc2)c(C#N)c2ccc(OC)cc21 [Compound 319] | > 2 |  |

| SMILES | IC50 [1] [µM] | further results |
| --- | --- | --- |
| CCn1c(-c2ccc(NC(=O)Oc3ccc(C)cc3)cc2)c(C#N)c2ccc(OC)cc21 [Compound 320] | > 2 |  |
| CCn1c(-c2cccc(C(=O)NCCCN3CCOCC3)c2)c(C#N)c2ccc(OC)cc21 [Compound 323] | > 2 |  |
| CCn1c(-c2cccc(NC(=O)CCl)c2)c(C#N)c2ccc(OC)cc21 [Compound 324] | > 2 |  |
| CCn1c(-c2cccc(NC(=O)c3ccccc3)c2)c(C#N)c2ccc(OC)cc21 [Compound 326] | > 2 |  |
| CCn1c(-c2cccc(NC(=O)c3ccco3)c2)c(C#N)c2ccc(OC)cc21 [Compound 327] | > 2 |  |
| CCn1c(-c2cccc(NC(=O)c3cc(C)on3)c2)c(C#N)c2ccc(OC)cc21 [Compound 328] | > 2 |  |
| CCn1c(-c2cccc(NC(C)=O)c2)c(C#N)c2ccc(OC)cc21 [Compound 329] | > 2 |  |
| CCn1c(-c2cccc(NC(=O)c3ccc4nonc4c3)c2)c(C#N)c2ccc(OC)cc21 [Compound 330] | > 2 |  |
| CCn1c(-c2cccs2)c(C#N)c2ccc(OC)cc21 [Compound 337] | > 2 |  |
| CCn1c(-c2cccc3c2oc2ccccc23)c(C#N)c2ccc(OC)cc21 [Compound 338] | > 2 |  |
| CCCn1c(-c2ccc(NS(=O)(=O)CC)cc2)cc2ccc(OC)cc21 [Compound 343] | > 2 |  |
| CCn1c(-c2cn(Cc3ccccc3)cn2)c(C#N)c2ccc(OC)cc21 [Compound 347] | > 2 |  |
| CCn1c(-c2cc[nH]n2)c(C#N)c2ccc(OC)cc21 [Compound 348] | > 2 |  |
| CCC(C)OC(=O)Nc1cccc(-c2c(C#N)c3ccc(OC)cc3n2CC)c1 (stereo not shown) [Compound 349] |  | IC50 [2]: < 0.5 µM |
| C#CCOC(=O)Nc1cccc(-c2c(C#N)c3ccc(OC)cc3n2CC)c1 [Compound 350] |  | IC50 [2]: 0.5 to 2 µM |
| C=CC(C)OC(=O)Nc1cccc(-c2c(C#N)c3ccc(OC)cc3n2CC)c1 (stereo not shown) [Compound 351] |  | IC50 [2]: 0.5 to 2 µM |
| C#CCCOC(=O)Nc1cccc(-c2c(C#N)c3ccc(OC)cc3n2CC)c1 [Compound 352] | 0.5 to 2 |  |
| CCn1c(-c2cccc(NC(=O)OC)c2)c(C#N)c2ccc(OC)cc21 [Compound 353] |  | IC50 [2]: < 0.5 µM |
| CC#CCOC(=O)Nc1cccc(-c2c(C#N)c3ccc(OC)cc3n2CC)c1 [Compound 354] | 0.5 to 2 |  |
